Literature values in patent publication US4960900A, “Oxyimino derivatives of thiazole, method of preparation and use in therapy” (priority 1987, dated 1990).

Experiments:
[1] = prior art documents; cited from earlier work
[2] = prior art documents; cited from earlier work; remark: listed apart in the source

Compound: Cc1ncsc1C(C)(C)O [2-(4-methylthiazol-5-yl)propan-2-ol]
- anticonvulsant properties (prior art) [1]: has anticonvulsant and antihypoxic properties
- antihypoxic properties (prior art) [2]: has anticonvulsant and antihypoxic properties
